Values joined by “and” are separate entries in the source; they are usually repeats but may differ in a detail not shown here. Equal entries are not always repeated.
Target: T1, DrOTOP1 A274W (Danio rerio, UniProt Q7ZWK8, A274W)
T1 construct: A previously generated codon-optimized full-length DrOTOP1[8]; (UniProt: Q7ZWK8) construct; expressed in transfected cells; host or cells: HEK-293 (CRL-1573, ATCC)
T1 sequence (Q7ZWK8 1-586 A274W): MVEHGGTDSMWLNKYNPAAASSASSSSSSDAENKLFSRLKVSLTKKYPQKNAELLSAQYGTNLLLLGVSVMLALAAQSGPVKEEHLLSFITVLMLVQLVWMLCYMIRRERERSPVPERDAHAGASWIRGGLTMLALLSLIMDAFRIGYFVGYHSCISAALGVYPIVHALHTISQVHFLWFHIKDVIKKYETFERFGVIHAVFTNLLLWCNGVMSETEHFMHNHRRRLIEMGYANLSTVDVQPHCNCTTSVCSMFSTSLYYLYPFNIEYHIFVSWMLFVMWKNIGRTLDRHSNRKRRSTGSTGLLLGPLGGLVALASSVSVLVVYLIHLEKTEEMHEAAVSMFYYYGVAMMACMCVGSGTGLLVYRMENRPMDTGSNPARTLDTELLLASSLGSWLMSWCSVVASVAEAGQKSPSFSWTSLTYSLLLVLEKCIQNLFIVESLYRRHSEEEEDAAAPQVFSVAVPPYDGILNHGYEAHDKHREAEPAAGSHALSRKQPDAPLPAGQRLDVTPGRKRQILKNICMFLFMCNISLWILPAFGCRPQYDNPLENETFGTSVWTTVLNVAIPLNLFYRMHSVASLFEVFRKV
Test: Whole-cell patch-clamp, inhibition of acid-evoked currents, DrOTOP1 A274W
Assay type: cell-based, zebrafish (Danio rerio)
From the text: We next tested mutations of the central site (L205W, A274W, F277A, E384A L385W, A388W). V201W and S389W, two additional central site mutations, were excluded from the study due to complete loss of channel activity. Mutation of E384 to alanine is expected to disrupt potential hydrogen bonding with C2.2. Of note, E384 is one of the few charged residues in the central pocket and could form a salt bridge with K281, that could also be affected by the mutation. Additionally, in our DrOTOP1_C2.2 structure, we observed that F277 underwent a substantial rearrangement, likely to avoid steric clash and accommodate C2.2 binding. Thus, we introduced the F277A mutation to test if removing this steric clash would enhance C2.2 inhibition.
HEK-293 cells (CRL-1573, ATCC) were cultured in DMEM (Thermofisher 11995073) containing 10% fetal bovine serum (Life Technology 16000044) and Penicillin-Streptomycin (100 I.U./mL) and (100 µg/mL), respectively. Cells were transfected with WT DrOTOP1 or mutant DrOTOP1 channels in 35 mm petri dishes, with ~ 500 ng DNA and 2 μL TransIT-LT1 transfection reagent (Mirus Bio Corporation, Cat # MIR2300) following the manufacturer’s protocol. All constructs were subcloned into a pcDNA3.1 vector that adds an N-terminal fusion tag consisting of an octahistidine tag followed by eGFP, a Gly-Thr-Gly-Thr linker and a 3C protease cleavage site ([…]) followed by WT DrOTOP1, WT mOTOP1, WT hOTOP1, or mutated DrOTOP1. Point mutations were generated via In-Fusion Cloning (Takara) using single-stranded DNA primers generated through IDT and sequence confirmed by Sanger sequencing (GeneWiz).
Whole-cell patch-clamp recording was performed as previously described[6],[22],[25]. Recordings were made with an Axopatch 200B amplifier, digitized with a Digidata 1322a 16-bit data acquisition system, acquired with pClamp 8.2 and analyzed with Clampfit 10 (Molecular Devices). Recordings were sampled at 5 kHz and filtered at 1 kHz. Patch Pipettes with resistance of […] were fabricated from borosilicate glass, and only recordings with a giga-Ohm seal were used in analysis. Membrane potential was held at −80 mV for the duration of recordings. At the beginning of recordings and between, cells were washed with Tyrode’s solution (see below). Once a giga-Ohm seal was reached, cells were lifted and placed in front of microcapillary tubes controlled by a Fast-Step perfusion system (Warner Instruments) so that extracellular solutions could be rapidly exchanged during each experiment.
Standard Tyrode’s solution consisted of 145 mM NaCl, 5 mM KCl, MgCl2, 2 mM CaCl2, 20 mM D-Glucose, and 10 mM HEPES (for pH 7.4). All other extracellular patch-clamp solutions contained 160 mM NMDG-Cl, 2 mM CaCl2, and the following buffers: 10 mM HEPES (for pH 7.4), 10 mM MES (for pH 6.5-5.5), 10 mM CHES for pH 10, and 10 mM HomoPIPES for (pH 5.0). pH adjusted with HCl. When adding compounds to extracellular solutions, the concentration of DMSO in solution was never higher than 0.3%. […]
All data are presented as mean ± SEM unless otherwise noted, and each data point represents an independent replicant. Inhibition of compounds was quantified as ((I2peak-I1)/(I2peak))*100, where I1 is the current immediately before wash-off and I2peak is the maximum recovered current (Supplementary Fig. 2). Hill coefficients were determined by the following equation: Y = Bmax*X^h/(Kd^h + X^h). […]

SMILES	inhibition at 10 µM (10 µM, single cells or mean)	Inhibition of currents (10 µM, single cells or mean, mean)	Inhibition of currents (10 µM, single cells or mean, single cells)	Inhibition of currents (100 µM, single cells)	inhibition at 100 µM (100 µM, single cells)
C=C(C)COc1ccccc1NC(=O)c1nc[nH]c1C [C2.2]	74.6%	72.36%	71.3399% and 74.8032% and 68.9769% and 72.0779%	–	–
O=C(/C(=N\O)c1ccccc1)c1ccccc1 [C11, benzil monoxime]	–	–	–	70.9091% and 73.0647% and 75.9259% and 71.7822%	76.2%

Reference: PMC12549899 (Nature Communications, 2025)
